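A five-concentration, 48-hour dose response in 96-well plates underlies each endpoint, interpolated linearly between surrounding concentrations. GI50: concentration for 50% inhibition of growth.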 Active and inactive are the calls of the source. No stated cut-off is given here; in the data, active = GI50 up to about 1.1 µM and inactive = higher.
Legend:
Assay in all cases: DTP human tumour cell line panel, 48 h
HCT-15 = system: HCT-15
LOX IMVI = system: LOX IMVI
SNB-75 = system: SNB-75
U-251 = system: U-251
SR = system: SR
TK-10 = system: TK-10
RXF 393 = system: RXF 393
RPMI-8226 = system: RPMI-8226
SN12C = system: SN12C
BT-549 = system: BT-549
CAKI-1 = system: CAKI-1
MDA-MB-435 = system: MDA-MB-435
MDA-MB-231 = system: MDA-MB-231
M14 = system: M14
SK-OV-3 = system: SK-OV-3
NCI/ADR-RES = system: NCI/ADR-RES
HL-60 = system: HL-60
IGROV-1 = system: IGROV-1
SK-MEL-28 = system: SK-MEL-28

| SMILES | GI50 (HCT-15) [µM] | GI50 (LOX IMVI) | GI50 (SNB-75) | GI50 (U-251) | GI50 (SR) | GI50 (TK-10) | GI50 (RXF 393) | GI50 (RPMI-8226) | GI50 (SN12C) | GI50 (BT-549) | GI50 (CAKI-1) | GI50 (MDA-MB-435) | GI50 (MDA-MB-231) | GI50 (M14) | GI50 (SK-OV-3) | GI50 (NCI/ADR-RES) | GI50 (HL-60) | GI50 (IGROV-1) | GI50 (SK-MEL-28) |
| --- | --- | --- | --- | --- | --- | --- | --- | --- | --- | --- | --- | --- | --- | --- | --- | --- | --- | --- | --- |
| C=C1c2nc3ccccc3n2C=C(c2ccc(OC)cc2)N1c1ccc(OCCN2CCOCC2)cc1 | 6.15 | 13.3 µM (inactive) | > 100 µM (inactive) | > 93.3 µM (inactive) | 4.41 µM (inactive) | 18.1 µM (inactive) | 71.6 µM (inactive) | 1.91 µM (inactive) | > 61.8 µM (inactive) | 49.2 µM (inactive) | 90.6 µM (inactive) | 24.3 µM (inactive) | > 86.1 µM (inactive) | 9.73 µM (inactive) | > 100 µM (inactive) | 5.21 µM (inactive) | 4.31 µM (inactive) | > 100 µM (inactive) | 42.2 µM (inactive) |
| C1CCNCC1.Oc1ncnc2[nH]cc(CN3CCCCC3)c12 | > 100 | > 100 µM (inactive) | 55.5 µM (inactive) | > 100 µM (inactive) | 37.7 µM (inactive) | 46 µM (inactive) | 43.8 µM (inactive) | 22 µM (inactive) | 48.8 µM (inactive) | > 100 µM (inactive) | > 100 µM (inactive) | > 100 µM (inactive) | > 100 µM (inactive) | > 100 µM (inactive) | > 100 µM (inactive) | > 100 µM (inactive) | 19.8 µM (inactive) | > 100 µM (inactive) | > 100 µM (inactive) |
| O=C1C2CCN(CC2)C1(CO)CO | 16.1 | 16 µM (inactive) | 57.7 µM (inactive) | 41.1 µM (inactive) | 20 µM (inactive) | 17.3 µM (inactive) | 21.1 µM (inactive) | 17.8 µM (inactive) | 17.6 µM (inactive) | 19.8 µM (inactive) | 19.2 µM (inactive) | 61.5 µM (inactive) | 20.9 µM (inactive) | 18.3 µM (inactive) | 60.7 µM (inactive) | 24.5 µM (inactive) | 38.7 µM (inactive) | > 89.5 µM (inactive) | 26.4 µM (inactive) |
| O=S(=O)(O)c1cc(O)c(/N=N/c2ccc3ccccc3c2O)c2ccccc12 [ERIOCHROME BLUE BLACK B] | 23.9 |  | 16.7 µM (inactive) | 32.4 µM (inactive) | 7.41 µM (inactive) | 66.2 µM (inactive) | 80.9 µM (inactive) | 41.7 µM (inactive) | 23.4 µM (inactive) | 37.3 µM (inactive) | 27 µM (inactive) | 1.97 µM (inactive) | 16.4 µM (inactive) | 13.3 µM (inactive) | 31.6 µM (inactive) | 15.6 µM (inactive) | 6.17 µM (inactive) | 3.59 µM (inactive) | 45.6 µM (inactive) |
| COc1ccc2oc(=N)c(C(=O)Nc3ccccn3)cc2c1 | > 100 | > 100 µM (inactive) | > 100 µM (inactive) | > 100 µM (inactive) | > 100 µM (inactive) |  | > 100 µM (inactive) | > 100 µM (inactive) | > 100 µM (inactive) | > 100 µM (inactive) | > 100 µM (inactive) | > 100 µM (inactive) | > 100 µM (inactive) | > 100 µM (inactive) | > 100 µM (inactive) | > 100 µM (inactive) | > 100 µM (inactive) | 53.6 µM (inactive) | > 100 µM (inactive) |
| CC(=O)O[C@H]1C(=O)[C@]2(C)[C@@H](OC(=O)OCCC(O)CO)C[C@H]3OC[C@@]3(OC(C)=O)[C@H]2[C@H](OC(=O)c2ccccc2)[C@]2(O)C[C@H](OC(=O)[C@H](O)[C@@H](NC(=O)c3ccccc3)c3ccccc3)C(C)=C1C2(C)C (stereo partly specified) | 2.14 | < 0.01 µM (active) | < 0.01 µM (active) | 0.0135 µM (active) | < 0.01 µM (active) | 2.4 µM (inactive) | 0.213 µM (active) | < 0.01 µM (active) | < 0.0166 µM (active) | 0.0667 µM (active) | 2.26 µM (inactive) | < 0.01 µM (active) | 0.0288 µM (active) | 0.0461 µM (active) | 0.0307 µM (active) | 15.2 µM (inactive) | < 0.01 µM (active) | < 0.0142 µM (active) |  |

Reference: ChEMBL document CHEMBL1201862, “PubChem BioAssay data set” (2004)
